According to patent US6821983B2, “5-(9-acridinylamino)-toluidine compounds” (Academia Sinica, priority 2003, dated 2004):
Counter-ions that a name gives are not always drawn. Each block holds one compound with its values, some of them ahead of it.

What was measured:
[1] = tested on: CCRF-CEM human lymphoblastic leukemic cells and its drug-resistant sublines; test: Growth inhibition of CCRF-CEM cells and drug-resistant sublines (XTT-tetrazolium assay, 72 h); type: cell-based; settings: for IC50 values compared with tested known 9-anilinoacridine compounds: CCRF-CEM and drug-resistant sublines, 72 h, as the trihydrochloride salt or free amine compounds; for cross-resistance with vinblastine or taxol: CCRF-CEM drug-resistant sublines
Experimental: (§1) Cytotoxicity Assays. The effects of the compounds on cell growth were determined in CCRF-CEM human lymphoblastic leukemic cells and its drug-resistant sublines in a 72 h incubation, by XTT-tetrazolium assay, as described by Scudiero et al. (Cancer Res. 1988, 48, 4827-4833). After the addition of phenazine methosulfate-XTT solution at 37° C. for 6 h, absorbance at 450 and 630 nm was detected on a microplate reader (EL 340; Bio-Tek Instruments Inc., Winooski, Vt.). Six to seven concentrations of each compound were used. The IC50 and dose-effect relationships of the compounds for antitumor activity were calculated by a median-effect plot (Chou et al. Adv. Enzyme Regul. 1984, 22, 27-55) using a computer program on an IBM-PC workstation (Chou et al. Dose-Effect Analysis with Microcomputers: Quantitation of ED50, LD50, Synergism, Antagonism, Low-Dose Risk, Receptor-Ligands Binding and Enzyme Kinetics; Biosoft: Cambridge, U.K., 1987).

human tumor cell lines = test: Inhibition of human tumor cell growth in culture (XTT-tetrazolium cytotoxicity assay, 72 h); type: cell-based; settings: five human tumor cell lines, 72 h incubation; for IC50 values compared with tested known 9-anilinoacridine antitumor compounds: for at least one cell line
Experimental: as §1, with “all” for “CCRF-CEM”, “tumor” for “lymphoblastic leukemic”, “cells (i.e. colon HT-29, nasopharyngeal carcinoma HONE-1” for “cells”, “BM-1, hepatoma Hepa-G2, breast carcinoma MX-1, gastric carcinoma TSGH, brain tumor DBTRG, oral carcinoma KB, breast carcinoma MCF-7 and MX-1, and T-cell acute lymphocytic leukemia CCRF-CEM),” for “its drug-resistant sublines”

[2] = tested on: human breast tumor MX-1 xenograft; test: Chemotherapeutic efficacy in nude mice bearing human breast tumor MX-1 xenograft; type: in vivo; settings: i.v., dosages of 10 mg/Kg or higher
Experimental: In vivo assay. Athymic nude mice bearing the nu/nu gene were used for human breast tumor MX-1 xenograft. Outbred Swiss-background mice were obtained from Charies River Breeding Laboratories. Male mice 8 weeks old or older weighing 22 g or more were used for most experiments. Drug was administrated via the tail vein by i.v. injection. Tumor volumes were assessed by measuring length x width x height (or width) by using caliper. Vehicle used was 20 μl DMSO in 180 μl saline. All animal studies were conducted in accordance with the guidelines of the National Institutes of Health Guide for the Care and Use of Animals and the protocol approved by the Memorial Sloan-Kettering Cancer Center's Institutional Animal Care and Use Committee.

- melting point: 245 to 246 °C
Compound: Cc1ccc(Nc2c3cccc(C)c3nc3c(C(=O)NCCN(C)C)cccc23)cc1N (as salt: HCl) [Compound 3, 5-[9-(4-dimethylaminoethylcarboxamido-5-methyl)acridinylamino)-p-toluidine hydrochloride]

- melting point: > 280 °C (dec.)
Compound: Cc1cc(N)cc(Nc2c3ccccc3nc3ccccc23)c1 (as salt: HCl) [Compound 10, 5-(9-acridinylamino)-m-toluidine]

Compound: Cc1cc(N)cc(Nc2c3cccc(C)c3nc3c(C(=O)NCCN(C)C)cccc23)c1 [Compound 1, 5-[9-(4-dimethylaminoethylcarboxamido-5-methyl)acridinylamino]-m-toluidine hydrochloride]
- IC50 values compared with tested known 9-anilinoacridine compounds [1]: lower than tested known 9-anilinoacridine compounds
- cross-resistance with vinblastine or taxol [1]: not cross-resistant
- IC50 values compared with tested known 9-anilinoacridine antitumor compounds (human tumor cell lines): lower than those of tested known 9-anilinoacridine antitumor compounds
- reducing tumor volume [2]: about 80%
- toxicity to the host [2]: very low toxicity

Compound: Cc1ccc(N)cc1Nc1c2cccc(C)c2nc2c(C(=O)NCCN(C)C)cccc12 [Compound 2, 3-[9-(4-dimethylaminoethylcarboxamido-5-methyl)acridinylamino)-p-toluidine hydrochloride]
- IC50 values compared with tested known 9-anilinoacridine compounds [1]: lower than tested known 9-anilinoacridine compounds
- cross-resistance with vinblastine or taxol [1]: not cross-resistant
- largest difference in IC50 versus one of the tested known compounds (human tumor cell lines): 18 fold
- IC50 values compared with tested known 9-anilinoacridine antitumor compounds (human tumor cell lines): lower than those of tested known 9-anilinoacridine antitumor compounds
- reducing tumor volume [2]: about 80%
- toxicity to the host [2]: very low toxicity

Compound: Cc1ccc(Nc2c3cccc(C)c3nc3c(C(=O)NCCN(C)C)cccc23)cc1N [Compound 3, 5-[9-(4-dimethylaminoethylcarboxamido-5-methyl)acridinylamino)-p-toluidine hydrochloride]
- IC50 values compared with tested known 9-anilinoacridine antitumor compounds (human tumor cell lines): lower than those of tested known 9-anilinoacridine antitumor compounds

- melting point: 131 to 132 °C
Compound: CCOC(=O)Nc1cc(Nc2c3cccc(C)c3nc3c(C(=O)NCCN(C)C)cccc23)ccc1C [Compound 6]
- IC50 values compared with tested known 9-anilinoacridine antitumor compounds (human tumor cell lines): lower than those of tested known 9-anilinoacridine antitumor compounds

Compound: {3-[4-(2-dimethylamino ethylcarbamoyl)-5-methyl-acridin-9-ylamino]-2-methyl-phenyl}-carbamic acid ethyl ester [Compound 5]
- IC50 values compared with tested known 9-anilinoacridine antitumor compounds (human tumor cell lines): lower than those of tested known 9-anilinoacridine antitumor compounds
